Assay results taken from patent EP2928896B1, “SOLID FORM OF DIHYDRO-PYRIDO-OXAZINE DERIVATIVE” (NOVARTIS AG, priority 2012, dated 2014).

Assays:
[1] = molecular target: PI3K alpha (Homo sapiens, UniProt P42336); assay: Enzymatic PI3K alpha isoform inhibition (lipid kinase activity, Kinase-Glo luminescence / ATP depletion); type: biochemical
Description: The reaction is started by the addition of PI3 kinase, e.g. PI3 kinase δ.
The reaction is started by the addition of ATP.

[2] = molecular target: T1, PI3K delta (Homo sapiens, UniProt O00329); assay: Enzymatic PI3K delta isoform inhibition (lipid kinase activity, Kinase-Glo luminescence / ATP depletion); type: biochemical
T1 construct: for the full-length p110-d subunit are generated and fused by overlapping PCR; p85 iSH2 (inter SH2 domain) fusion partner (N); His tag (C); made in house; host or cells: baculovirus; Tn5 (Trichoplusia ni) or TiniPro insect cells
T1 sequence (O00329 with tags, fused parts or gaps limits assumed): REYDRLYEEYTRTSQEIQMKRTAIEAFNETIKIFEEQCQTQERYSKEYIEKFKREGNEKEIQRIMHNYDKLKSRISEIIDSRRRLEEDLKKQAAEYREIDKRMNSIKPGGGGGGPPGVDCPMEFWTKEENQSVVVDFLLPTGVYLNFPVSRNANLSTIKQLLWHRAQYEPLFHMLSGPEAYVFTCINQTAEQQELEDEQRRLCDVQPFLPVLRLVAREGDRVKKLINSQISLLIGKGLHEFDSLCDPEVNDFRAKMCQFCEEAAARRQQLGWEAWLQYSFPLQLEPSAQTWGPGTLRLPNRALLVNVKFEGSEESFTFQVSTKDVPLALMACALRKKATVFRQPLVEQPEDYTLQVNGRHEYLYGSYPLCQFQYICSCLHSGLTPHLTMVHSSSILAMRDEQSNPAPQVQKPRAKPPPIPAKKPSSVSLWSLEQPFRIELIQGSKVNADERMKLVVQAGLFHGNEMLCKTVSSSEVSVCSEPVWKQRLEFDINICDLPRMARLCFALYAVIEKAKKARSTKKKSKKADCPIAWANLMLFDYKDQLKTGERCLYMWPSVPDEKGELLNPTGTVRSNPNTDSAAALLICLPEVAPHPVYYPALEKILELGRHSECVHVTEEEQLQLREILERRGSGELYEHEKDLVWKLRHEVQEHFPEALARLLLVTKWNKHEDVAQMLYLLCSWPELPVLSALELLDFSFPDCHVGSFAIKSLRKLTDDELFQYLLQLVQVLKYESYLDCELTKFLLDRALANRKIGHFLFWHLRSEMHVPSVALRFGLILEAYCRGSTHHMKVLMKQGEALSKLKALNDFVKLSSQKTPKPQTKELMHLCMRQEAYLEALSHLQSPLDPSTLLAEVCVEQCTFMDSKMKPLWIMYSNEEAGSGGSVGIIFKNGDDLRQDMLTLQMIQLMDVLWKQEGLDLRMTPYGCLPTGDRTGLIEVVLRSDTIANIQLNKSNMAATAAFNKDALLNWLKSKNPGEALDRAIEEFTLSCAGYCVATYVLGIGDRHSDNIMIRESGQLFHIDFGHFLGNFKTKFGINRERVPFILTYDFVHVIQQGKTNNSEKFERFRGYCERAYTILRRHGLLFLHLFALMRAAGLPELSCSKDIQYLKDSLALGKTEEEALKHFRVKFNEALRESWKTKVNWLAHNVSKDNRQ

[3] = molecular target: T2, PI3Kδ (Homo sapiens, UniProt O00329); assay: PI3K-mediated Akt 1/2 (S473) phosphorylation in Rat-1 cells overexpressing myristoylated PI3K delta (AlphaScreen SureFire); type: cell-based
T2 construct: expressed in transfected cells
T2 sequence (O00329 1-1044): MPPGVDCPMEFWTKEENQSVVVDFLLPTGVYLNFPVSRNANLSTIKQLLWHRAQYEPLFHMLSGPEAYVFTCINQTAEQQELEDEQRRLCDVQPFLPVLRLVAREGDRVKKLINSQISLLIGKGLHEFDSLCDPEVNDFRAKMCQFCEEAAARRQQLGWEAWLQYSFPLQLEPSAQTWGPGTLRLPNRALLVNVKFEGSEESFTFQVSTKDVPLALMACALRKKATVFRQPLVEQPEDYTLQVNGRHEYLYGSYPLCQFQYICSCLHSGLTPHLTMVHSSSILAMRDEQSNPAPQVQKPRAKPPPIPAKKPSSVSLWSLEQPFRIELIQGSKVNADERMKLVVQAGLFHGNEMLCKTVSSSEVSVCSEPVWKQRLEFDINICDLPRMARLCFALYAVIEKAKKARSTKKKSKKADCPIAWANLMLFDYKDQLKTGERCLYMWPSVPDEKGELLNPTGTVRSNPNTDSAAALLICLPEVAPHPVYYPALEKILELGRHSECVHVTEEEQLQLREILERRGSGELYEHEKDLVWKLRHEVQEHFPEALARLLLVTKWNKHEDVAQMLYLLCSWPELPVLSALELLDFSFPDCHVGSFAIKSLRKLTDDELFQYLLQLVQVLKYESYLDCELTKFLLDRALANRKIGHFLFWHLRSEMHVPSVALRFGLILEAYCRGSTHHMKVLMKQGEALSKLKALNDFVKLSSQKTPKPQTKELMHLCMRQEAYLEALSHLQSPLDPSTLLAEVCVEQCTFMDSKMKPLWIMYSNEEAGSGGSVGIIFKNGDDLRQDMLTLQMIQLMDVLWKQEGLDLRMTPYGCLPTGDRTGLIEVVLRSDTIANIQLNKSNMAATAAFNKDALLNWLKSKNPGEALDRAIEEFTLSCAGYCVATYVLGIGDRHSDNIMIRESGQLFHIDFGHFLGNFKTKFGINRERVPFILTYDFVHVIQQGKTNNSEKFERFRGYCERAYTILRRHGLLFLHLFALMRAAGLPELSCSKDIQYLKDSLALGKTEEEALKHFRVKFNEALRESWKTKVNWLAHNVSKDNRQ
Protocol: Rat-1 cells stably overexpressing a myristoylated form of the catalytic subunit of human phosphoinositide-3 kinase (PI3K) alpha, beta or delta were plated in 384-well plates at a density of 7500 (PI3K alpha), 6200 (PI3K beta), or 4000 (PI3K delta) cells in 30ul complete growth medium (Dulbecco's modified Eagle's medium (DMEM high glucose) supplemented with 10% (v/v) fetal bovine serum, 1% (v/v) MEM non essential amino acids, 10mM HEPES, 2mM L-glutamine, 10 µg/mL puromycin and 1% (v/v) Penicillin/Streptomycin) and were incubated at 37%C / 5%CO2 / 95% humidity for 24h. Compounds were diluted in 384-well compound plates to obtain 8-point serial dilutions for 40 test compounds in 90% DMSO, as well as 4 reference compounds plus 16 high controls and 16 low (inhibited) controls. Predilution plates were prepared by dispensing pipetting 250 nl of compound solutions into 384-well polypropylen plates using a Hummingwell nanoliter dispensor. Compounds were prediluted by the addition of 49.75 ul complete growth medium. 10ul of prediluted compound solution were transferred to the cell plate using a 384-well pipettor, resulting in a final DMSO concentration of 0.11%. […]
For detection of p-AKT(Ser473), the SureFire® p-Akt 1/2 (Ser473) Assay Kit (PerkinElmer, U.S.A) was used. […] The plate was read on an AlphaScreen® compatible plate reader, using standard AlphaScreen® settings.

PI3K alpha, sequence (P42336 with tags, fused parts or gaps limits assumed): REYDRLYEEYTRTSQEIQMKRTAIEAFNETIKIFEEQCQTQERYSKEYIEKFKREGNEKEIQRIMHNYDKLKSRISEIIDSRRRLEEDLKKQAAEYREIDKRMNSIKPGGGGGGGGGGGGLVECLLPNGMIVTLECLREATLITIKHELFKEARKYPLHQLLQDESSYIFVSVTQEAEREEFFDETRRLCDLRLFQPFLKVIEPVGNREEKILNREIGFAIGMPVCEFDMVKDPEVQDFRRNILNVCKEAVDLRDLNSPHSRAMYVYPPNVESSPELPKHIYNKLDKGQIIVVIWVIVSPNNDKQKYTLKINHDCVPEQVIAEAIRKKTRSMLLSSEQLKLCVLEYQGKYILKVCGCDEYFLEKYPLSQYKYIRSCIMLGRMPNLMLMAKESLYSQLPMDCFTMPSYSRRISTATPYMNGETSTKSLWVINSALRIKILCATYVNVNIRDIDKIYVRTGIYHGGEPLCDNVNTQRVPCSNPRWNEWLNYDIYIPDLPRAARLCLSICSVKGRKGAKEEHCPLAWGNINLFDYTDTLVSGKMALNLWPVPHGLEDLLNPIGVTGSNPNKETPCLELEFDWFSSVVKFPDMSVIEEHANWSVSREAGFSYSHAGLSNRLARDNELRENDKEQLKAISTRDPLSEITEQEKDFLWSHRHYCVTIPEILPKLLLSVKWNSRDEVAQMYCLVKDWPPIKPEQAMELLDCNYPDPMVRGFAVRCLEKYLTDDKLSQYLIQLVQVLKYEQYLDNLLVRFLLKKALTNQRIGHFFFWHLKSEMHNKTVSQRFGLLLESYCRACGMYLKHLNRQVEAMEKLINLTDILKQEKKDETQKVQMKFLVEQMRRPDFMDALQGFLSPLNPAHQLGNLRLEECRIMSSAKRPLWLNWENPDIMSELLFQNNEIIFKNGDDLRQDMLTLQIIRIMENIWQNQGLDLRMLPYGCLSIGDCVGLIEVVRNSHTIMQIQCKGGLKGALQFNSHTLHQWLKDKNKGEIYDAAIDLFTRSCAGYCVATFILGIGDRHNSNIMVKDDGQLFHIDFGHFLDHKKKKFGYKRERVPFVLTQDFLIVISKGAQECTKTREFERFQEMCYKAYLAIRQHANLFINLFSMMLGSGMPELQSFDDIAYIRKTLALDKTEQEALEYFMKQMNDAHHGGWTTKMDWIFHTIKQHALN

## COc1ncc(N2CCOc3cnc(O[C@H]4CCN(C(=O)C5CCS(=O)(=O)CC5)C4)cc32)cc1C [Example F1, (1,1-Dioxo-hexahydro-1lambda*6*-thiopyran-4-yl)-{(S)-3-[1-(6-methoxy-5-methyl-pyridin-3-yl)-2,3-dihydro-1H-pyrido[3,4-b][1,4]oxazin-7-yloxy]-pyrrolidin-1-yl}-methanone]
[1]
  IC50: 109 nM
[2]
  IC50: 3 nM
[3]
  IC50: 11 nM
